Each block holds one compound with its values, some of them ahead of it. Ends that are not written are not given here.
Assays:
[1] = tested on: HEK-PR1 cells; assay: Potentiation of carbachol-evoked Ca2+ signals by 8-Br-cAMP in HEK-PR1 cells; format: cell-based; conditions: n = 3; for Peak [Ca2+]c: 8-Br-cAMP 10 mM, then carbachol 20 µM; for pEC50 / Δ[Ca2+]c (maximal potentiated increase): carbachol 20 µM
Description: (§1) Results are shown as mean±s.e.m.

[2] = tested on: EPAC1 and EPAC2; assay: Effect of EPAC antagonist ESI-09 on Ca2+ signals in HEK-PR1 cells; format: cell-based
Description: (§2) HEK-PR1 cells (∼10^5 PTH1R/cell) were cultured as described previously ([Tovey et al., 2008]). Measurements of [Ca^2+]c in cell populations were performed as previously described ([Tovey et al., 2008]). Briefly, confluent cultures of HEK-PR1 grown in 96-well plates were loaded with fluo 4 by incubation with fluo 4AM (2 µM, 20°C) in HEPES-buffered saline (HBS). HBS had the following composition (in mM): NaCl 135, KCl 5.9, MgCl2 1.2, CaCl2 1.5, HEPES 11.6 and glucose 11.5, pH 7.3. After 1 h, loading medium was replaced with HBS, and after 45 min cells were used at 20°C for measurements of [Ca^2+]c. A fluorescence plate-reader equipped to allow automated fluid additions (FlexStation 3, Molecular Devices, Sunnyvale, CA, USA) was used to record fluorescence at intervals of 1.44 s (excitation at 485 nm; emission at >525 nm) ([Tovey et al., 2006]).

[3] = tested on: PKA; assay: Effect of PKA inhibitor H89 on PTH(1-34)-evoked cAMP and potentiated Ca2+ signals; format: cell-based; conditions: H89 10 µM, 20 min; for intracellular cAMP in H89-treated cells relative to matched control cells: mean±s.e.m., n = 3, SEM
Description: These assays were performed under conditions that replicate those used for measurements of [Ca^2+]c. HEK-PR1 cells were grown in 24-well plates until ∼90% confluent, [^3H]adenine (2 µCi per well) was then added to the culture medium. After 2 h at 37°C in 5% CO2, the medium was removed, cells were washed with HBS, and used for experiments in HBS at 20°C. Because many cells extrude cAMP into the extracellular medium ([Copsel et al., 2011]), reactions were terminated by first removing the medium and then adding ice-cold trichloroacetic acid (5% v/v, 1 ml). After 30 min on ice, [^3H]cAMP was separated from other ^3H-adenine nucleotides by sequential column chromatography on Dowex cation exchange resin and alumina as previously described ([Pantazaka et al., 2013]). The activity of the eluates was determined by liquid scintillation counting and amounts of [^3H]cAMP are expressed as percentages of the sum of the activities recovered in the [^3H]cAMP, [^3H]ADP and [^3H]ATP fractions.

[4] = tested on: adenylyl cyclase; assay: Potentiation of carbachol-evoked Ca2+ signals by NKH477 in HEK-PR1 cells; format: cell-based; conditions: n = 3; for Peak [Ca2+]c: NKH477 200 µM, then carbachol 20 µM; for pEC50 / Δ[Ca2+]c (maximal potentiated increase): carbachol 20 µM
Description: as §1

[5] = molecular target: T1, PTH1R (Homo sapiens, UniProt Q03431); assay: Intracellular cAMP accumulation ([3H]adenine labelling) in HEK-PR1 cells; format: cell-based; conditions: n = 3, read-out: cAMP pEC50 (converted)
T1 construct: expressed in transfected cells
T1 sequence (Q03431 27-593): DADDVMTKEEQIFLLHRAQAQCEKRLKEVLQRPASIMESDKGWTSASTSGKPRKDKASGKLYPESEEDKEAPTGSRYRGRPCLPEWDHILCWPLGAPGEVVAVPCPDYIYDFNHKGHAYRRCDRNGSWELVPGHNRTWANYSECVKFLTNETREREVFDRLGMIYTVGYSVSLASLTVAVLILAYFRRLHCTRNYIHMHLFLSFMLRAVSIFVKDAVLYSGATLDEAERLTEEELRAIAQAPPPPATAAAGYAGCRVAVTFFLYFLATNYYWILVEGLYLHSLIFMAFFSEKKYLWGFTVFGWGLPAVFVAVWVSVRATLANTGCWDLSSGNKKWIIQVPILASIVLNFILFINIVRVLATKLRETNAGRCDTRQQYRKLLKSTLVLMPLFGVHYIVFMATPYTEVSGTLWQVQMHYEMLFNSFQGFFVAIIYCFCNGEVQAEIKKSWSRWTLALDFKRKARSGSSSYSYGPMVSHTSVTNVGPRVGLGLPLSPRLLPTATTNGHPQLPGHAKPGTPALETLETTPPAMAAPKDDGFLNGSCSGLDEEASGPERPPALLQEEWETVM
Description: These assays were performed under conditions that replicate those used for measurements of [Ca^2+]c. HEK-PR1 cells were grown in 24-well plates until ∼90% confluent, [^3H]adenine (2 µCi per well) was then added to the culture medium. After 2 h at 37°C in 5% CO2, the medium was removed, cells were washed with HBS, and used for experiments in HBS at 20°C. […] The activity of the eluates was determined by liquid scintillation counting and amounts of [^3H]cAMP are expressed as percentages of the sum of the activities recovered in the [^3H]cAMP, [^3H]ADP and [^3H]ATP fractions.

[6] = molecular target: T1, PTH1R; assay: Potentiation of carbachol-evoked Ca2+ signals by PTH analogues (fluo 4, HEK-PR1 cell populations); format: cell-based; conditions: then carbachol 20 µM in Ca2+-free HBS, n = 3, read-out: peak [Ca2+]c pEC50 (converted)
Description: Briefly, confluent cultures of HEK-PR1 grown in 96-well plates were loaded with fluo 4 by incubation with fluo 4AM (2 µM, 20°C) in HEPES-buffered saline (HBS). […] After 1 h, loading medium was replaced with HBS, and after 45 min cells were used at 20°C for measurements of [Ca^2+]c.
Concentration–effect relationships were fitted to Hill equations using Prism version 5 (GraphPad, San Diego, CA, USA). Results are shown as mean±s.e.m. […] All statistical comparisons are therefore between experiments performed in parallel and analysed using paired Student's t-tests.

[7] = tested on: HEK-PR1 cells; assay: Cytosolic IP3 measured with FRET sensor in single HEK-PR1 cells; format: cell-based; conditions: carbachol 1 mM; mean±s.e.m., n = 17 coverslips; SEM
Description: A FRET sensor based on the IP3-binding core of IP3R1 ([Tovey and Taylor, 2013]) was used to measure cytosolic concentrations of IP3 in single HEK-PR1 cells under conditions similar to those used for measurements of [Ca^2+]c. The plasmid and properties of the sensor were as described previously ([Tovey and Taylor, 2013]). The sensor comprises the IP3-binding core attached through short linkers to enhanced cyan fluorescent protein (CFP) at its N-terminus and enhanced yellow fluorescent protein (YFP) at its C-terminus (see inset to Fig. 3A). IP3 binding causes a decrease in FRET. […] An Olympus IX71 inverted fluorescence microscope with a 40× objective and a 440 nm/520 nm dual band-pass dichroic mirror was used to record fluorescence from widefield images after excitation at 440 nm (to excite CFP). A Luca EMCCD camera (Andor Technology, Belfast, UK) was used to collect emitted fluorescence simultaneously at 1-s intervals from YFP (520–550 nm) and CFP (455–485 nm) using a Cairn Optosplit 2 image-splitter fitted with a 495-nm dichroic mirror. After correction for background fluorescence (determined from cytosolic areas of non-transfected cells), FRET ratios are presented as the ratio of CFP emission to YFP emission, so that the ratio increases (decreased FRET) after IP3 binding.

[8] = tested on: PTH1R; parameters: method as in 2 sources, one per row (each row's own in cited_ref): ref Cupp et al., 2013 and others listed in Table S1 ||| ref supplementary material Table S1; conditions: Table S1, properties from the literature; ref Cupp et al., 2013 and others listed in Table S1; cited from earlier work
[9] = tested on: PTH1R; conditions: Table S1, properties from the literature; ref Cupp et al., 2013 and others listed in Table S1; cited from earlier work
[10] = molecular target: T1, PTH1R; assay: Ca2+ signals directly evoked by PTH analogues alone in HEK-PR1 cells; format: cell-based; conditions: highest concentrations of the analogue, no carbachol (Fig. 1F)
Description: as §2

[11] = PTH analogue 1 min, mean ± s.e.m., SEM

Compound: Nc1ncnc2c1nc(Br)n2[C@@H]1O[C@@H]2COP(=O)(O)O[C@H]2[C@H]1O [8-Br-cAMP]
Peak [Ca2+]c ([1]; 5 min): 386 ± 21 nM
Peak [Ca2+]c ([1]; 30 min): 222 ± 24 nM
pEC50 ([1]; 8-Br-cAMP 5 min): 3.5 ± 0.1 /M
Δ[Ca2+]c (maximal potentiated increase) ([1]; 8-Br-cAMP 5 min): 207 ± 7 nM
pEC50 ([1]; 8-Br-cAMP 30 min): 3.7 ± 0.1 /M
Δ[Ca2+]c (maximal potentiated increase) ([1]; 8-Br-cAMP 30 min): 113 ± 5 nM

Compound: CC(C)(C)c1cc(C(=O)C(C#N)=NNc2cccc(Cl)c2)no1 [ESI-09, 3-[5-(tert-butyl)isoxazol-3-yl]-2-[2-(3-chlorophenyl)hydrazono]-3-oxopropanenitril]
effect on Ca2+ signals evoked by carbachol alone ([2]; ESI-09 10 µM, 5 min): no significant effect
effect on concentration-dependent potentiation by PTH(1-34) of carbachol-evoked Ca2+ signals ([2]; ESI-09 10 µM, 5 min): no significant effect
effect on small Ca2+ signals directly evoked by high concentrations of PTH(1-34) ([2]; ESI-09 10 µM, 5 min): no significant effect
effect on potentiation of carbachol-evoked Ca2+ signals by 8-Br-cAMP ([2]; ESI-09 10 µM, added 5 min before 8-Br-cAMP): unaffected
effect on carbachol-evoked Ca2+ release ([2]; higher concentrations of ESI-09 (50 µM) or more prolonged treatments (15 min)): directly inhibited carbachol-evoked Ca^2+ release

Compound: Cl.Cl.O=S(=O)(NCCNCC=Cc1ccc(Br)cc1)c1cccc2cnccc12 [H89, N-[2-[[3-(4-bromophenyl)-2-propenyl]amino]ethyl]-5-isoquinolinesulfonamide dihydrochloride]
effect of PKA inhibition on acute and sustained effects of PTH(1-34), NKH477 or 8-Br-cAMP on carbachol-evoked Ca2+ signals [3]: no effect
intracellular cAMP in H89-treated cells relative to matched control cells ([3]; 3 µM PTH(1-34) for 1 min): 95±0.1%
intracellular cAMP in H89-treated cells relative to matched control cells ([3]; 3 µM PTH(1-34) for 60 min): 98±0.2%

pEC50 ([4]; NKH477 2 min): 5.0 ± 0.3 /M
pEC50 ([4]; NKH477 5 min): 5.0 ± 0.1 /M
pEC50 ([4]; NKH477 15 min): 5.0 ± 0.1 /M
pEC50 ([4]; NKH477 30 min): 6.0 ± 0.1 /M
Compound: C=C[C@@]1(C)CC(=O)[C@]2(O)[C@@]3(C)[C@@H](O)CCC(C)(C)[C@@H]3C(OC(=O)CCN(C)C)[C@H](OC(C)=O)[C@@]2(C)O1.Cl (stereo partly drawn) [NKH477, N,N-dimethyl-(3R,4aR,5S,6aS,10S,10aR,10bS)-5-(acetyloxy)-3-ethenyldodecahydro-10,10b-dihydroxy-3,4a,7,7,10a-pentamethyl-1-oxo-1H-naphtho[2,1-b]pyran-6-yl ester β-alanine hydrochloride]
Peak [Ca2+]c ([4]; 2 min): 331 ± 20 nM
Peak [Ca2+]c ([4]; 30 min): 256 ± 12 nM
Δ[Ca2+]c (maximal potentiated increase) ([4]; NKH477 2 min): 257 ± 3 nM
Δ[Ca2+]c (maximal potentiated increase) ([4]; NKH477 5 min): 225 ± 9 nM
Δ[Ca2+]c (maximal potentiated increase) ([4]; NKH477 15 min): 155 ± 10 nM
Δ[Ca2+]c (maximal potentiated increase) ([4]; NKH477 30 min): 124 ± 24 nM

EC50 ([5]; PTH analogue 1 min): 794 nM
EC50 ([5]; PTH analogue 30 min): 200 nM
EC50 [6, 11]: 200 nM
EC50 ([6]; PTH analogue 30 min): 39.8 nM
Compound: CC[C@H](C)[C@H](NC(=O)[C@H](CCC(=O)O)NC(=O)[C@H](CO)NC(=O)[C@@H](NC(=O)[C@@H](N)Cc1ccc(O)cc1)C(C)C)C(=O)N[C@@H](CCC(N)=O)C(=O)N[C@@H](CC(C)C)C(=O)N[C@@H](CCSC)C(=O)N[C@@H](Cc1c[nH]cn1)C(=O)N[C@@H](CC(N)=O)C(=O)N[C@@H](CC(C)C)C(=O)NCC(=O)N[C@@H](CCCCN)C(=O)N[C@@H](Cc1c[nH]cn1)C(=O)N[C@@H](CC(C)C)C(=O)N[C@@H](CC(N)=O)C(=O)N[C@@H](CO)C(=O)N[C@@H](CCSC)C(=O)N[C@@H](CCC(=O)O)C(=O)N[C@@H](CCCNC(=N)N)C(=O)N[C@H](C(=O)N[C@@H](CCC(=O)O)C(=O)N[C@@H](Cc1c[nH]c2ccccc12)C(=O)N[C@@H](CC(C)C)C(=O)N[C@@H](CCCNC(=N)N)C(=O)N[C@@H](CCCCN)C(=O)N[C@@H](CCCCN)C(=O)N[C@@H](CC(C)C)C(=O)N[C@@H](CCC(N)=O)C(=O)N[C@@H](CC(=O)O)C(=O)N[C@H](C(=O)N[C@@H](Cc1c[nH]cn1)C(=O)N[C@@H](CC(N)=O)C(=O)N[C@@H](Cc1ccccc1)C(=O)O)C(C)C)C(C)C [Tyr1PTH(1-34)]

Compound: C[N+](C)(C)CCOC(N)=O [carbachol, Carbamylcholine chloride]
transfected cells responding with discernible FRET changes [7]: 52±2%

Compound: PTH(3-34): PTH analogue not used in this study, included for comparison with earlier work (SEIQLMHNLGKHLNSMERVEWLRKKLQDVHNF; Parathyroid hormone; UniProt P01270 34-65, looked up, fragment)
Signalling to AC from internalized PTH1R [8]: No
Gq (PLC) [9]: Inactive

direct Ca2+ signal evoked by the analogue alone [10]: directly evoked small Ca^2+ signals
Compound: SVSEIQLMHNLGKHLNSMERVEWLRKKLQDV [PTH(1-31), analogue of PTH that stimulates adenylyl cyclase]
Signalling to AC from internalized PTH1R [8]: Yes

EC50 ([5]; PTH analogue 1 min): 316 nM
EC50 ([5]; PTH analogue 30 min): 63.1 nM
EC50 [6, 11]: 126 nM
EC50 ([6]; PTH analogue 30 min): 50.1 nM
Compound: VSEIQLMHNLGKHLNSMERVEWLRKKLQDVHNFVALG [PTH(2-38)]

— article PMC4294780, “Sustained signalling by PTH modulates IP3 accumulation and IP3 receptors through cyclic AMP junctions” (Journal of Cell Science, 2015)
